Measured values: the kinase profiling compilation of Christmann-Franck et al. (2016)
“And” between values parts separate entries of the source, which are not always exact repeats. Equal values may be shown once.

Key:
Test in all cases: KINOMEscan competition binding
Settings in all cases: compound 10.0 µM
MYLK4 (human) = MYLK4 (human) (UniProt Q86YV6)
PHKG1 (human) = PHKG1 (human) (UniProt Q16816)
LYN (human) = LYN (human) (UniProt P07948)
HUNK (human) = HUNK (human) (UniProt P57058)
MAP2K2 (human) = MAP2K2 (human) (UniProt P36507)
[1] = system: ABL1 (human), P00519 [Y253F]
TEC (human) = TEC (human) (UniProt P42680)
EPHB6 (human) = EPHB6 (human) (UniProt O15197)
STK38 (human) = STK38 (human) (UniProt Q15208)
BMPR1A (human) = BMPR1A (human) (UniProt P36894)
MARK1 (human) = MARK1 (human) (UniProt Q9P0L2)
STK16 (human) = STK16 (human) (UniProt O75716)
MAP2K5 (human) = MAP2K5 (human) (UniProt Q13163)
ICK (human) = ICK (human) (UniProt Q9UPZ9)
STK32A (human) = STK32A (human) (UniProt Q8WU08)
MAPK1 (human) = MAPK1 (human) (UniProt P28482)
MAP3K15 (human) = MAP3K15 (human) (UniProt Q6ZN16)
SGK3 (human) = SGK3 (human) (UniProt Q96BR1)
ABL2 (human) = ABL2 (human) (UniProt P42684)
FRK (human) = FRK (human) (UniProt P42685)
TEK (human) = TEK (human) (UniProt Q02763)
FLT3 (human) = FLT3 (human) (UniProt P36888)
MARK3 (human) = MARK3 (human) (UniProt P27448)
STK36 (human) = STK36 (human) (UniProt Q9NRP7)
RPS6KA4 KD2 (human) = RPS6KA4 KD2 (human) (UniProt O75676)
PRKCH (human) = PRKCH (human) (UniProt P24723)
TAOK1 (human) = TAOK1 (human) (UniProt Q7L7X3)
DDR2 (human) = DDR2 (human) (UniProt Q16832)
DMPK (human) = DMPK (human) (UniProt Q09013)
EIF2AK2 (human) = EIF2AK2 (human) (UniProt P19525)
TGFBR2 (human) = TGFBR2 (human) (UniProt P37173)
RIOK1 (human) = RIOK1 (human) (UniProt Q9BRS2)
PIK3C2G (human) = PIK3C2G (human) (UniProt O75747)
PLK1 (human) = PLK1 (human) (UniProt P53350)
MAPKAPK2 (human) = MAPKAPK2 (human) (UniProt P49137)
DYRK1B (human) = DYRK1B (human) (UniProt Q9Y463)
CAMKK2 (human) = CAMKK2 (human) (UniProt Q96RR4)
SGK110 (human) = SGK110 (human) (UniProt P0C264)
CDK17 (human) = CDK17 (human) (UniProt Q00537)
MARK4 (human) = MARK4 (human) (UniProt Q96L34)

Chain of SGK3 (human) (Q96BR1 whole entry, looked up): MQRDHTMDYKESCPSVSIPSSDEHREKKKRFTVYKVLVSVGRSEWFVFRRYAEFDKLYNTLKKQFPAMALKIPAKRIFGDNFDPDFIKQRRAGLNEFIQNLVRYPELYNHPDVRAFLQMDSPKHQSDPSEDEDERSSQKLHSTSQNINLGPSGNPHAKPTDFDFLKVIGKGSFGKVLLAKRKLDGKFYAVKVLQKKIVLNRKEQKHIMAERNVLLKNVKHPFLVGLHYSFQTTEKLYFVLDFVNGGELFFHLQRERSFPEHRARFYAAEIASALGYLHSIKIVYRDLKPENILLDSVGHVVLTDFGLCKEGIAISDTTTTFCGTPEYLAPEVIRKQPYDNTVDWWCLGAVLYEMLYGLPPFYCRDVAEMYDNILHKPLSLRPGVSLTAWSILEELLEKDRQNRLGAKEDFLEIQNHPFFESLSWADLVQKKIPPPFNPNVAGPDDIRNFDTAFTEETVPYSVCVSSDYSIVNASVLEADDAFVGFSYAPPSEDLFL
Chain of FLT3 (human) (P36888 whole entry, looked up): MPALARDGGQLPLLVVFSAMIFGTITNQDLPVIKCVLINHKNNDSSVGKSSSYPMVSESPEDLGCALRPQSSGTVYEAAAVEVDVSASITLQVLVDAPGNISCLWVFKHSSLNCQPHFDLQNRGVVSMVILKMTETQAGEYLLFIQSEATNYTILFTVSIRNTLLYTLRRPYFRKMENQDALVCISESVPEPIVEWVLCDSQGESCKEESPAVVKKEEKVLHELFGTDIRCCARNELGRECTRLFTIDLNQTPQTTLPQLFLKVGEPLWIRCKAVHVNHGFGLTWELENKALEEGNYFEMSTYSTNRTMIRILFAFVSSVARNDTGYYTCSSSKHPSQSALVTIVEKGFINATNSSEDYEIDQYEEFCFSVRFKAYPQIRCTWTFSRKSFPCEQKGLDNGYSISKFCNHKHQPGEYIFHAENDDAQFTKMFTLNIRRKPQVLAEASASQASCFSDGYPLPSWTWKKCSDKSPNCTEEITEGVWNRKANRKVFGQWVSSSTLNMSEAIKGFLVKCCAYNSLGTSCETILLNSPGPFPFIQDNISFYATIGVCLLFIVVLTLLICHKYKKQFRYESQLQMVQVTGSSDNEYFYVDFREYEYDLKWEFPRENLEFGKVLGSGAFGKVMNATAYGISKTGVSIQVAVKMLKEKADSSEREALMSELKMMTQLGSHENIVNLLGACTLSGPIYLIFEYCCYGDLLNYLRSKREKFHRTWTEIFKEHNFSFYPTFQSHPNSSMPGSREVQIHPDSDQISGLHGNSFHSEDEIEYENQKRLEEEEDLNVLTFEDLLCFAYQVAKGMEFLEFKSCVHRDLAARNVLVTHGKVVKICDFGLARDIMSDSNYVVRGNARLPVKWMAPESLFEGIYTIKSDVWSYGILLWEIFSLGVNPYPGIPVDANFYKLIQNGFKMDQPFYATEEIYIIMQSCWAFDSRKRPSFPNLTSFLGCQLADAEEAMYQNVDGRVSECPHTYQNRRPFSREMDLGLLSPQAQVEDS
Chain of LYN (human) (P07948 whole entry, looked up): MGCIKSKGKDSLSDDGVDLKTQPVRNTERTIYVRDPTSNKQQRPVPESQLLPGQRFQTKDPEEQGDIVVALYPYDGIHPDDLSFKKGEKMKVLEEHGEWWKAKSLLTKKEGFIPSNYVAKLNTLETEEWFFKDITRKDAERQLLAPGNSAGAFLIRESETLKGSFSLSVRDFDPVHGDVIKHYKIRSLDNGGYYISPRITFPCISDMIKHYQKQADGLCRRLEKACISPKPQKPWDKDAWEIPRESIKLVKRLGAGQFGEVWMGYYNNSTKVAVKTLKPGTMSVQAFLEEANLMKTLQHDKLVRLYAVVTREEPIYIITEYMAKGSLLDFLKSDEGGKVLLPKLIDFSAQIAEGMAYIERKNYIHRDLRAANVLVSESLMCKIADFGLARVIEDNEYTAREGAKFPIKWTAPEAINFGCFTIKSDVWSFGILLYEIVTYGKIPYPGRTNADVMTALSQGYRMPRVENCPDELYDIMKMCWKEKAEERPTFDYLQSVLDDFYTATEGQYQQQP
Chain of MAPKAPK2 (human) (P49137 whole entry, looked up): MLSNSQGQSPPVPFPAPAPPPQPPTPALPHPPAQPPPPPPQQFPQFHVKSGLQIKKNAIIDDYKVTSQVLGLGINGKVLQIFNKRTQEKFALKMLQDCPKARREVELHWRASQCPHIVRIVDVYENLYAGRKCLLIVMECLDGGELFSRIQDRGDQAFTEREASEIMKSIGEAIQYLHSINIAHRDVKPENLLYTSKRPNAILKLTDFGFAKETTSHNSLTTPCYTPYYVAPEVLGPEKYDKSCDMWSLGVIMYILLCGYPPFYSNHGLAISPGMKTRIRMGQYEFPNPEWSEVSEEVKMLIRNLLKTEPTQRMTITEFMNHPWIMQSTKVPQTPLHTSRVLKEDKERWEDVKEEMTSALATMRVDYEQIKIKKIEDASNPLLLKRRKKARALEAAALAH
Chain of MARK1 (human) (Q9P0L2 whole entry, looked up): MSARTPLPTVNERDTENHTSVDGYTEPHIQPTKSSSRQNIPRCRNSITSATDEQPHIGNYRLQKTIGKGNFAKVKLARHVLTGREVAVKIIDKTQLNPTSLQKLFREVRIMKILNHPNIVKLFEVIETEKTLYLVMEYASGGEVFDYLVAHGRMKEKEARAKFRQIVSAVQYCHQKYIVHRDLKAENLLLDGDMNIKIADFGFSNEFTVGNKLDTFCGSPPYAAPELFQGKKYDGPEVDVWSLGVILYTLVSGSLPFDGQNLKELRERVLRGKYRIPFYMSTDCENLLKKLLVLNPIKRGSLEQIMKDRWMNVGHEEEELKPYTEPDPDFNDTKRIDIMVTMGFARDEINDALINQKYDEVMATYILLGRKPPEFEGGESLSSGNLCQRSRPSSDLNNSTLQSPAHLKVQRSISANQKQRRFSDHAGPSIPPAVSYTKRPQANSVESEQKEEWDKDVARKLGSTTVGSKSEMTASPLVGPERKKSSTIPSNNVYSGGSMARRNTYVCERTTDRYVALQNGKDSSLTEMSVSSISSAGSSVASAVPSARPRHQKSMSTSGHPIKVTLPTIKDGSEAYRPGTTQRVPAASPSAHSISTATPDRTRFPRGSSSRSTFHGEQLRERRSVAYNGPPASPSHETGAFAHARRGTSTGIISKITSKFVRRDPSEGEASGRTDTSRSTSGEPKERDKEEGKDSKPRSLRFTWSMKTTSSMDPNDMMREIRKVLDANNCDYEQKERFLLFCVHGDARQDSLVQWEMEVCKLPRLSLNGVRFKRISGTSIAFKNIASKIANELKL
Chain of MYLK4 (human) (Q86YV6 whole entry, looked up): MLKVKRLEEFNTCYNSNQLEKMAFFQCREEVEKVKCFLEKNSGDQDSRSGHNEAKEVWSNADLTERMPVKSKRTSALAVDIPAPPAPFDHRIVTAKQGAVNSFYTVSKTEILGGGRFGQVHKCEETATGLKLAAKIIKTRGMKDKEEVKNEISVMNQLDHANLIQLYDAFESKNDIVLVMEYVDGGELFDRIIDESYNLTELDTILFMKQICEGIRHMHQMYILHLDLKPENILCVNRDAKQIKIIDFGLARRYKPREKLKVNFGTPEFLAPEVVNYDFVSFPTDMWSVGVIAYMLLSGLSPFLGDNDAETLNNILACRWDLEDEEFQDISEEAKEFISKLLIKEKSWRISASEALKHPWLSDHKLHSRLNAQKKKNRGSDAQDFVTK
Chain of TEC (human) (P42680 whole entry, looked up): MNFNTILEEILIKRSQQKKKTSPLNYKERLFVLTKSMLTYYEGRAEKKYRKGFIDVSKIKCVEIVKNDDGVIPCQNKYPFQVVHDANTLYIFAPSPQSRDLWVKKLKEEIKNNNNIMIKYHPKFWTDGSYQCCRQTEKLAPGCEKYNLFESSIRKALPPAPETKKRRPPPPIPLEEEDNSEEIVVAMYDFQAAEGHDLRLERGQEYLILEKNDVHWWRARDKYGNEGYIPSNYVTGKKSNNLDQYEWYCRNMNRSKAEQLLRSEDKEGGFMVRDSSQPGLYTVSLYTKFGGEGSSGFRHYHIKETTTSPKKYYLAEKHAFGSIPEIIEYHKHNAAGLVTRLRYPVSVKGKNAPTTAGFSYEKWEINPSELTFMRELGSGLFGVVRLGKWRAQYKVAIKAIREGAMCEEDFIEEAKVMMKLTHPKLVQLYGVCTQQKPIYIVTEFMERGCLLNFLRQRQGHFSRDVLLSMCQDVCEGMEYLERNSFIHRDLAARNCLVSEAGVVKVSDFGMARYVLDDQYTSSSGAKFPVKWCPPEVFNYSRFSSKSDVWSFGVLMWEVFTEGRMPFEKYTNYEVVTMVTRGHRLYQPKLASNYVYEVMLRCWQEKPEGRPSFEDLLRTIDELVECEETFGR
Chain of PRKCH (human) (P24723 whole entry, looked up): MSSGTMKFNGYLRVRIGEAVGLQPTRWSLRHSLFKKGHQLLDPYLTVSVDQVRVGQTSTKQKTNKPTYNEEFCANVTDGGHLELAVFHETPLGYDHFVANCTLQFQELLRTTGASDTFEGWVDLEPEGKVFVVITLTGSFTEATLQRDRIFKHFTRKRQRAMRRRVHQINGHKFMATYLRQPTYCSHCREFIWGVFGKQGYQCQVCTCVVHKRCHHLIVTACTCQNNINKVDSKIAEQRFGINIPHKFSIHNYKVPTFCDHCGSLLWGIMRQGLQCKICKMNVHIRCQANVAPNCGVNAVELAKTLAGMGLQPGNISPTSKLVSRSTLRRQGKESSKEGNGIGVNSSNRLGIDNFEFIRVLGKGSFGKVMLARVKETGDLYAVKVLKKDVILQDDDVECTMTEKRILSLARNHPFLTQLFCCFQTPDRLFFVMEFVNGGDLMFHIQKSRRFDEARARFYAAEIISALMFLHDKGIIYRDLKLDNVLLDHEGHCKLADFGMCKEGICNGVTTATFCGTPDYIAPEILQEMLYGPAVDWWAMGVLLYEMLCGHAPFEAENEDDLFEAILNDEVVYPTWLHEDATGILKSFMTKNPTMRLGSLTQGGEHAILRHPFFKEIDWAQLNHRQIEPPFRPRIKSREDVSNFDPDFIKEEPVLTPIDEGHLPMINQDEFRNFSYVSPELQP

Row | Structure (SMILES) | kinase still bound, per cent of control (MYLK4 (human)) [%] | kinase still bound, per cent of control (PHKG1 (human)) [%] | kinase still bound, per cent of control (LYN (human)) [%] | kinase still bound, per cent of control (HUNK (human)) [%] | kinase still bound, per cent of control (MAP2K2 (human)) [%] | kinase still bound, per cent of control [1] [%] | kinase still bound, per cent of control (TEC (human)) [%] | kinase still bound, per cent of control (EPHB6 (human)) [%] | kinase still bound, per cent of control (STK38 (human)) [%] | kinase still bound, per cent of control (BMPR1A (human)) [%] | kinase still bound, per cent of control (MARK1 (human)) [%] | kinase still bound, per cent of control (STK16 (human)) [%] | kinase still bound, per cent of control (MAP2K5 (human)) [%] | kinase still bound, per cent of control (ICK (human)) [%] | kinase still bound, per cent of control (STK32A (human)) [%] | kinase still bound, per cent of control (MAPK1 (human)) [%] | kinase still bound, per cent of control (MAP3K15 (human)) [%] | kinase still bound, per cent of control (SGK3 (human)) | kinase still bound, per cent of control (ABL2 (human)) [%] | kinase still bound, per cent of control (FRK (human)) [%] | further results
1 | O=C(Nc1cccc(Nc2ncc(Br)c(NCCc3cnc[nH]3)n2)c1)N1CCCC1 | 6.8 | 2.3 | 24 | 73 | 0.2 | 0.1 | 47 | 0.2 | 35 | 0.8 | 0.45 | 0.55 | 0.6 | 10 | 51 | 77 | 50 | 91% | 7.8 | 46 | kinase still bound, per cent of control (TEK (human)): 12%; kinase still bound, per cent of control (FLT3 (human)): 0%; kinase still bound, per cent of control (MARK3 (human)): 0.3%; kinase still bound, per cent of control (STK36 (human)): 18%; kinase still bound, per cent of control (RPS6KA4 KD2 (human)): 0.95%; kinase still bound, per cent of control (PRKCH (human)): 33%; kinase still bound, per cent of control (TAOK1 (human)): 0.25%; kinase still bound, per cent of control (DDR2 (human)): 65%; kinase still bound, per cent of control (DMPK (human)): 9.1%; kinase still bound, per cent of control (EIF2AK2 (human)): 31%; kinase still bound, per cent of control (TGFBR2 (human)): 100%; kinase still bound, per cent of control (RIOK1 (human)): 0%; kinase still bound, per cent of control (PIK3C2G (human)): 25%; kinase still bound, per cent of control (PLK1 (human)): 41%; kinase still bound, per cent of control (MAPKAPK2 (human)): 100%; kinase still bound, per cent of control (DYRK1B (human)): 35%; kinase still bound, per cent of control (CAMKK2 (human)): 2%; kinase still bound, per cent of control (SGK110 (human)): 0.95%; kinase still bound, per cent of control (CDK17 (human)): 77%; kinase still bound, per cent of control (MARK4 (human)): 0%
2 | O=C1NC(=O)/C(=C/c2ccc3nccc(-c4ccncc4)c3c2)S1 | 2.2 | 31 | 92 | 59 | 4.4 | 68 | 73 | 39 | 61 | 2 | 74 | 4.9 | 46 | 46 | 83 | 100 | 100 | 66% and 84% | 77 | 81 | kinase still bound, per cent of control (TEK (human)): 98%; kinase still bound, per cent of control (FLT3 (human)): 39% and 61%; kinase still bound, per cent of control (MARK3 (human)): 100%; kinase still bound, per cent of control (STK36 (human)): 89%; kinase still bound, per cent of control (RPS6KA4 KD2 (human)): 63%; kinase still bound, per cent of control (PRKCH (human)): 88%; kinase still bound, per cent of control (TAOK1 (human)): 3%; kinase still bound, per cent of control (DDR2 (human)): 63%; kinase still bound, per cent of control (DMPK (human)): 2.9%; kinase still bound, per cent of control (EIF2AK2 (human)): 20%; kinase still bound, per cent of control (TGFBR2 (human)): 73%; kinase still bound, per cent of control (RIOK1 (human)): 1%; kinase still bound, per cent of control (PIK3C2G (human)): 3.8%; kinase still bound, per cent of control (PLK1 (human)): 26%; kinase still bound, per cent of control (MAPKAPK2 (human)): 74%; kinase still bound, per cent of control (DYRK1B (human)): 1.2%; kinase still bound, per cent of control (CAMKK2 (human)): 2%; kinase still bound, per cent of control (SGK110 (human)): 100%; kinase still bound, per cent of control (CDK17 (human)): 59%; kinase still bound, per cent of control (MARK4 (human)): 89%
